In ChEMBL document CHEMBL6121051, “Dendritic Antifungal Peptides as Potent Agents against Drug-Resistant Candida albicans and Biofilm” (J Med Chem, 2025):
In brackets after ≈: the same amount, converted by molar mass. Activity calls are given as the source filed them. The calls are words filed in the database; no cut-off is given here. Positions of bridges follow the written chain, without caps; N, C: chain ends. Residues, ends and D or L forms follow the SMILES beside them. Chains are numbered I, II in the order given. *: point of attachment. Butyryl = CCCC(=O)*

Assays:
Candida albicans [1] = test: Antifungal activity against Candida albicans assessed as inhibition of fungal growth preincubated with 8 mg/ml proteinase K for 8 hrs followed by incubation with fungus for 48 hrs; assay type: functional, organism-based
Cell wall [2] = test: Induction of cell wall permeability in Candida albicans 2.2086 at 16 uM by NPN probe based fluorescence analysis; assay type: subcellular
Candida albicans [3] = test: Antifungal activity against Candida albicans assessed as inhibition of fungal growth compound preincubated with upto 8 mg/ml chymotrypsin for 4 hrs followed by incubation with fungus for 48 hrs; assay type: functional, organism-based
[4] = Drug localization in Candida albicans cell membrane using FITC-labeled compound at 8 uM incubated for 3 hrs by DAPI staining based fluorescence microscopy; assay type: ADME, cell membranes
Candida albicans [5] = test: Induction of ROS production in Candida albicans 2.2086 assessed as increase in intracellular ROS accumulation at <4 uM incubated for 1 hr by DCFH-DA staining based fluorescence analysis; assay type: functional, organism-based
Candida albicans [6] = test: Antifungal activity against Candida albicans 58288 assessed as inhibition of fungal growth incubated for 48 hrs; assay type: functional
[7] = Drug localization in Candida albicans cell membrane using FITC-labeled compound by FITC/PI staining based confocal microscopy; assay type: ADME, cell membranes
Cell membrane [8] = test: Induction of cell membrane damage in Candida albicans assessed as scattered distribution of cell wall and cell membrane structures, loss of integrity and leakage of contents at 16 uM incubated for 1 hr by transmission electron microscopy; assay type: subcellular
Candida albicans [9] = test: Antifungal activity against Candida albicans assessed as inhibition of fungal growth incubated for 48 hrs in presence of ZnCl2; assay type: functional, organism-based
Candida albicans [10] = test: Antifungal activity against fluconazole-resistant Candida albicans 56214 infected in ICR mouse assessed as reduction in IL-6 expression in skin wound at 5 mg/ml administered topically bid for 3 days starting at 12 hrs post-infection and measured after 7 days by immunofluorescence analysis; assay type: functional, organism-based; conditions: time 7.0 day
Candida albicans [11] = test: Antifungal activity against Candida albicans assessed as inhibition of fungal growth incubated for 48 hrs in presence of MgCl2; assay type: functional, organism-based
Candida albicans [12] = test: Antifungal activity against Candida albicans SP 3903 assessed as inhibition of fungal growth incubated for 48 hrs; assay type: functional
RAW264.7 = test: Cytotoxicity against mouse RAW264.7 cells assessed as damage to cells at 4XMIC incubated for 8 hrs by Calcein-AM/PI staining based fluorescence microscopy; assay type: toxicity, cell-based; conditions: raw264.7, 8 h
Candida albicans [13] = test: Fungicidal activity against fluconazole-resistant Candida albicans 56214 assessed as killing effect within biofilms by measuring increase in red fluorescence intensity at 8 uM incubated for 3 hrs by SYTO9/PI staining based fluorescence microscopy; assay type: functional
Candida albicans [14] = test: Antifungal activity against Candida albicans assessed as inhibition of fungal growth compound preincubated with upto 8 mg/ml proteinase K for 4 hrs followed by incubation with fungus for 48 hrs; assay type: functional, organism-based
Candida albicans [15] = test: Fungicidal killing kinetic activity against fluconazole-resistant Candida albicans 56214 assessed as killing of fungi at 1XMIC to 4XMIC incubated with fungus in PBS solution for 3 mins followed by culturing on YPD plate for 48 hrs; assay type: functional, organism-based; conditions: time 2883.0 min
Candida albicans [16] = test: Antifungal activity against fluconazole-resistant Candida albicans 56214 assessed as inhibition of fungal growth incubated for 48 hrs; assay type: functional
Candida albicans [17] = test: Antifungal activity against Candida albicans assessed as inhibition of fungal growth preincubated with 8 mg/ml chymotrypsin for 8 hrs followed by incubation with fungus for 48 hrs; assay type: functional, organism-based
Candida albicans [18] = test: (§1) Antifungal activity against fluconazole-resistant Candida albicans 56214 infected in ICR mouse assessed as reduction in severity of skin infection at 5 mg/ml administered topically bid for 3 days starting at 12 hrs post-infection and measured after 7 days by PAS staining based analysis; assay type: functional, organism-based; conditions: time 7.0 day
[19] = Cytotoxicity against human HEK293T cells assessed as cell survival rate at 128 ug/ml incubated for 4 hrs by MTT assay; assay type: toxicity, cell-based, HEK-293T; conditions: dose 128 µg/ml, read-out: Activity
Cell membrane [20] = test: Induction of cell membrane damage in Candida albicans assessed as scattered distribution of cell wall and cell membrane structures, loss of integrity and leakage of contents at 16 uM incubated for 1 hr by scanning electron microscopy; assay type: subcellular
Candida albicans [21] = test: Antifungal activity against Candida albicans assessed as inhibition of fungal growth incubated for 48 hrs in presence of FeCl3; assay type: functional, organism-based
Candida albicans [22] = test: Antifungal activity against Candida albicans assessed as inhibition of fungal growth incubated for 48 hrs in presence of KCl; assay type: functional, organism-based
Candida albicans [23] = test: as §1, with “in oxidative stress by measuring decrease in ROS accumulation in” for “in severity of”, “skin wounds” for “skin infection”, “by fluorescence” for “by PAS”; assay type: functional, organism-based; conditions: time 7.0 day
Candida albicans [24] = test: Antifungal activity against Candida albicans 17546 assessed as inhibition of fungal growth incubated for 48 hrs; assay type: functional
HEK-293T [25] = test: Cytotoxicity against human HEK293T cells assessed as cell viability at 8 to 128 ug/ml incubated for 4 hrs by MTT assay; assay type: toxicity, cell-based; conditions: dose 8-128 µg/ml
Candida albicans [26] = test: Antifungal activity against Candida albicans assessed as inhibition of fungal growth preincubated with 4 mg/ml trypsin for 8 hrs followed by incubation with fungus for 48 hrs; assay type: functional, organism-based
[27] = Drug penetration into mature fluconazole-resistant Candida albicans 56214 biofilms assessed as increase in green fluorescence intensity at 8 to 16 uM using FITC-labeled compound incubated in dark for 3 hrs by DAPI staining based laser confocal microscopy; assay type: ADME; conditions: dose 8-16 µM
Candida albicans [28] = test: Antifungal activity against Candida albicans SP 3931 assessed as inhibition of fungal growth incubated for 48 hrs; assay type: functional
Cell membrane [29] = test: Disruption of cytoplasmic membrane in Candida albicans 2.2086 assessed as increase in membrane depolarization at 1XMIC by diSC3-5 dye based potentiometric analysis
Candida albicans [30] = test: Antifungal activity against fluconazole-resistant Candida albicans 56214 infected in ICR mouse assessed as reduction in TNF-alpha expression in skin wound at 5 mg/ml administered topically bid for 3 days starting at 12 hrs post-infection and measured after 7 days by immunofluorescence analysis; assay type: functional, organism-based; conditions: time 7.0 day
Candida albicans [31] = test: Antifungal activity against fluconazole-resistant Candida albicans 56214 infected in ICR mouse assessed as log reduction in fungal burden on the infected skin at 5 mg/ml administered topically bid for 3 days starting at 12 hrs post-infection and measured after 7 days; assay type: functional; conditions: time 7 day
Candida albicans [32] = test: Fungicidal activity against fluconazole-resistant Candida albicans 56214 assessed as killing effect by measuring orange fluorescence at 8 uM incubated for 1 hr by SYTO9/PI staining based fluorescence microscopy; assay type: functional
Candida albicans [33] = test: Induction of morphological changes in Candida albicans 2.2086 at 8 to 16 uM incubated for 2 hrs by fluorescence cell imaging system; assay type: functional, organism-based; conditions: dose 8-16 µM
Candida albicans [34] = test: Antifungal activity against fluconazole-resistant Candida albicans 56214 infected in ICR mouse assessed as wound healing with appearance of new skin tissue at 5 mg/ml administered topically bid for 3 days starting at 12 hrs post-infection and measured for 6 days; assay type: functional, organism-based; conditions: time 6.0 day
Candida albicans [35] = test: Antifungal activity against Candida albicans SP 3902 assessed as inhibition of fungal growth incubated for 48 hrs; assay type: functional
Candida albicans [36] = test: Antifungal activity against Candida albicans 2.3989 assessed as inhibition of fungal growth incubated for 48 hrs; assay type: functional
Candida albicans [37] = test: Antifungal activity against Candida albicans assessed as inhibition of fungal growth incubated for 48 hrs in presence of NH4Cl; assay type: functional, organism-based
Candida albicans [38] = test: Antifungal activity against Candida albicans assessed as inhibition of fungal growth incubated for 48 hrs in presence of CaCl2; assay type: functional, organism-based
Candida albicans [39] = test: Antifungal activity against Candida albicans cgmcc 2.2086 assessed as inhibition of fungal growth incubated for 48 hrs; assay type: functional
Candida albicans [40] = test: Antifungal activity against Candida albicans assessed as inhibition of fungal growth compound preincubated with upto 4 mg/ml trypsin for 4 hrs followed by incubation with fungus for 48 hrs; assay type: functional, organism-based
Candida albicans [41] = test: Antifungal activity against Candida albicans 14936 assessed as inhibition of fungal growth incubated for 48 hrs; assay type: functional
Candida albicans [42] = test: Antifungal activity against fluconazole-resistant Candida albicans 56214 infected in ICR mouse assessed as elimination of fungal hyphae on the infected skin at 5 mg/ml administered topically bid for 3 days starting at 12 hrs post-infection and measured after 7 days by PAS staining; assay type: functional, organism-based; conditions: time 7.0 day
Cell wall [43] = test: Induction of cell wall permeability in Candida albicans 2.2086 assessed as increase in cell wall damage by NPN probe based fluorescence analysis; assay type: subcellular; conditions: dose 4-128 µM
Candida albicans [44] = test: Inhibition of biofilm formation of fluconazole-resistant Candida albicans 56214 at 8 uM incubated for 48 hrs by crystal violet staining based analysis; assay type: functional
Candida albicans [45] = test: Antifungal activity against Candida albicans assessed as inhibition of fungal growth incubated for 48 hrs in presence of NaCl; assay type: functional, organism-based
Cell membrane [46] = test: Disruption of cytoplasmic membrane in Candida albicans 2.2086 assessed as increase in membrane depolarization at 1XMIC to 4XMIC measured after 500 secs by diSC3-5 dye based potentiometric analysis; assay type: subcellular; conditions: time 500.0 sec
HEK-293T [47] = test: Cytotoxicity against human HEK293T cells assessed as damage to cells at 4XMIC incubated for 8 hrs by Calcein-AM/PI staining based fluorescence microscopy; assay type: toxicity, cell-based
[48] = Toxicity against human RBC assessed as hemolysis rate at 128 ug/ml incubated for 1 hr; assay type: cell-based, Erythrocyte; conditions: red blood cells (RBC), dose 128 µg/ml, read-out: Activity

With `CCCC(=O)NCC(=O)NCC(=O)NCC(=O)N[C@@H](CCCCNC(=O)[C@@H]1CCCN1C(=O)[C@H](CCCNC(=N)N)NC(=O)[C@@H]1CCCN1C(=O)[C@H](CCCNC(=N)N)NC(=O)[C@@H]1CCCN1C(=O)[C@@H](N)CCCNC(=N)N)C(=O)N[C@@H](CCCCNC(=O)[C@@H]1CCCN1C(=O)[C@H](CCCNC(=N)N)NC(=O)[C@@H]1CCCN1C(=O)[C@H](CCCNC(=N)N)NC(=O)[C@@H]1CCCN1C(=O)[C@@H](N)CCCNC(=N)N)C(=O)N[C@@H](CCCNC(=N)N)C(=O)N1CCC[C@H]1C(=O)N[C@@H](CCCNC(=N)N)C(=O)N1CCC[C@H]1C(=O)N[C@@H](CCCNC(=N)N)C(=O)N1CCC[C@H]1C(N)=O` (I: Butyryl-GGGKKRPRPRP-NH2 / II: H-RPRPRP / III: H-RPRPRP; amide I:4-II:C, I:5-III:C) the Activity (Candida albicans [1]) was “Active”, the Activity (Cell wall [2]) was 100% and the Activity (Candida albicans [3]) was “Active”. For the same molecule, the Drug uptake [4] was > 90%, the Activity (Candida albicans [5]) was “Active” and the MIC (Candida albicans [6]) was 8 µM (≈ 22.4 µg/mL). For the same molecule, the Drug uptake [7] was “Active”, the Activity (Cell membrane [8]) was “Active” and the Activity (Candida albicans [9]) was “Active”. For the same molecule, the Activity (Candida albicans [10]) was “Active”, the Activity (Candida albicans [11]) was “Active” and the MIC (Candida albicans [12]) was 4 µM (≈ 11.2 µg/mL). For the same molecule, the Activity (RAW264.7) was “Non-toxic”, the Activity (Candida albicans [13]) was >90% and the Activity (Candida albicans [14]) was “Active”. The Activity (Candida albicans [15]) was “Active”, the MIC (Candida albicans [16]) was 4 µM (≈ 11.2 µg/mL) and the Activity (Candida albicans [17]) was “Active”. The Activity (Candida albicans [18]) was “Active”, the viability at 4 h, 128 ug/ml [19] was 95% and the Activity (Cell membrane [20]) was “Active”. For the same molecule, the Activity (Candida albicans [21]) was “Active”, the Activity (Candida albicans [22]) was “Active” and the Activity (Candida albicans [23]) was “Active”. For the same molecule, the MIC (Candida albicans [24]) was 16 µM (≈ 44.7 µg/mL), the Activity (HEK-293T [25]) was “Non-toxic” and the Activity (Candida albicans [26]) was “Active”. The Drug uptake [27] was “Active”, the MIC (Candida albicans [28]) was 4 µM (≈ 11.2 µg/mL) and the Activity (Cell membrane [29]) was “Active; Effective Depolarization Observed”. For the same molecule, the Activity (Candida albicans [30]) was “Active”, the “log(activity)” value (Candida albicans [31]) was ~1.7 and the Activity (Candida albicans [32]) was 90%. The Activity (Candida albicans [33]) was “Active”, the Activity (Candida albicans [34]) was “Active” and the MIC (Candida albicans [35]) was 4 µM (≈ 11.2 µg/mL). For the same molecule, the MIC (Candida albicans [36]) was 4 µM (≈ 11.2 µg/mL), the Activity (Candida albicans [37]) was “Active” and the Activity (Candida albicans [38]) was “Active”. For the same molecule, the MIC (Candida albicans [39]) was 4 µM (≈ 11.2 µg/mL), the Activity (Candida albicans [40]) was “Active” and the MIC (Candida albicans [41]) was 4 µM (≈ 11.2 µg/mL). The Activity (Candida albicans [42]) was “Active”, the Activity (Cell wall [43]) was “Dose-dependent-effect” and the inhibition at 8 µM (Candida albicans [44]) was 100%. For the same molecule, the Activity (Candida albicans [45]) was “Active”, the Activity (Cell membrane [46]) was “Active” and the Activity (HEK-293T [47]) was “Non-toxic”. The hemolysis at 1 h, 128 ug/ml [48] was < 2%.
